According to PMC8851638 (ACS Omega, 2022):
Values after ≈ are worked out from the molar mass of the structure shown. Values joined by “and” are separate entries in the source; they are usually repeats but may differ in a detail not shown here. Identical values can stand only once.

What was measured:
[1] = test system: E. coli; experiment: Single-step resistance selection; assay type: cell-based; settings: 4 × MIC, 48 h
[2] = test system: C. albicans100; experiment: Single-step resistance selection; assay type: cell-based, Candida albicans; settings: 4 × MIC, 48 h
[3] = test system: E. coli (MDR00501); experiment: Agar well-diffusion antimicrobial sensitivity assay; assay type: cell-based; settings: Escherichia coli, read-out: Inhibition Zone (IZ)
[4] = test system: C. albicans200 (MDR00200); experiment: as above; assay type: cell-based, Candida albicans; settings: Candida albicans, read-out: Inhibition Zone (IZ)
[5] = test system: E. coli; experiment: Checkerboard combination assay with Ciprofloxacin; assay type: cell-based
[6] = test system: S. epidermidis; experiment: Single-step resistance selection; assay type: cell-based, Staphylococcus epidermidis; settings: 4 × MIC, 48 h
[7] = test system: S. aureus; experiment: Single-step resistance selection; assay type: cell-based, Staphylococcus aureus; settings: 4 × MIC, 48 h
[8] = test system: Vero: green monkey kidney; experiment: In vitro cytotoxicity on normal cell line; assay type: cell-based
[9] = In vitro cytotoxicity on normal cell line; assay type: cell-based, green monkey; settings: green monkey, Vero kidney cells
[10] = test system: C. albicans200; experiment: Single-step resistance selection; assay type: cell-based, Candida albicans; settings: 4 × MIC, 48 h
[11] = test system: S. epidermidis (MDR00223); experiment: Agar well-diffusion antimicrobial sensitivity assay; assay type: cell-based, Staphylococcus epidermidis; settings: Staphylococcus epidermidis, read-out: Inhibition Zone (IZ)
[12] = test system: S. aureus (MDR00231); experiment: MIC and MBC by broth microdilution; assay type: cell-based, Staphylococcus aureus
[13] = test system: S. epidermidis (MDR00223); experiment: MIC and MBC by broth microdilution; assay type: cell-based, Staphylococcus epidermidis
[14] = test system: A. baumannii; experiment: Single-step resistance selection; assay type: cell-based; settings: 4 × MIC, 48 h
[15] = test system: E. coli (MDR00501); experiment: MIC and MBC by broth microdilution; assay type: cell-based
[16] = test system: C. albicans200; experiment: Checkerboard combination assay with Ketoconazole; assay type: cell-based, Candida albicans
[17] = test system: H9C2: rat heart/myocardium; experiment: In vitro cytotoxicity on normal cell line; assay type: cell-based
[18] = In vitro cytotoxicity on normal cell line; assay type: cell-based, rat; settings: rat, H9C2 heart/myocardium cells
[19] = test system: S. aureus biofilm; experiment: Staphylococcus biofilm mass reduction; assay type: cell-based; settings: at their MIC
[20] = test system: C. albicans100 (MDR00100); experiment: Agar well-diffusion antimicrobial sensitivity assay; assay type: cell-based, Candida albicans; settings: Candida albicans, read-out: Inhibition Zone (IZ)
[21] = test system: S. aureus; experiment: Checkerboard combination assay with Ciprofloxacin; assay type: cell-based, Staphylococcus aureus
[22] = test system: S. aureus (MDR00231); experiment: Agar well-diffusion antimicrobial sensitivity assay; assay type: cell-based, Staphylococcus aureus; settings: Staphylococcus aureus, read-out: Inhibition Zone (IZ)
[23] = test system: A. baumannii; experiment: Checkerboard combination assay with Ciprofloxacin; assay type: cell-based
[24] = test system: RBCs; experiment: Hemolytic assay; assay type: cell-based; settings: human RBCs; compounds 1.0 mg/mL; Triton X-100 0.1% v/v; 37 °C, 35 min
[25] = test system: C. albicans200 (MDR00200); experiment: MIC and MFC by broth microdilution; assay type: cell-based, Candida albicans
[26] = test system: B. subtilis; experiment: Single-step resistance selection; assay type: cell-based; settings: 4 × MIC, 48 h
[27] = test system: B. subtilis (MDR00423); experiment: MIC and MBC by broth microdilution; assay type: cell-based
[28] = test system: C. albicans100 (MDR00100); experiment: MIC and MFC by broth microdilution; assay type: cell-based, Candida albicans
[29] = test system: K. pneumoniae (MDR00244); experiment: MIC and MBC by broth microdilution; assay type: cell-based; settings: ratio in parentheses
[30] = test system: C. albicans100; experiment: Checkerboard combination assay with Ketoconazole; assay type: cell-based, Candida albicans
[31] = molecular target: T1, dihydrofolate reductase (DHFR) (Homo sapiens, UniProt P00374); experiment: DHFR inhibition; assay type: biochemical
T1 sequence (P00374 1-187): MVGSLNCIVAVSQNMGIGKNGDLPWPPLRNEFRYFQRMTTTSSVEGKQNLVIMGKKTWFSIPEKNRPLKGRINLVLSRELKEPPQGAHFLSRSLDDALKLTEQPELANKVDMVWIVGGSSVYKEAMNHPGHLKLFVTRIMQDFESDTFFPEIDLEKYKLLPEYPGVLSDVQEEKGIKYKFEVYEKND

[32] = test system: B. subtilis; experiment: Checkerboard combination assay with Ciprofloxacin; assay type: cell-based
[33] = test system: S. epidermidis; experiment: Checkerboard combination assay with Ciprofloxacin; assay type: cell-based, Staphylococcus epidermidis
[34] = test system: A. baumannii (MDR00521); experiment: MIC and MBC by broth microdilution; assay type: cell-based
[35] = test system: K. pneumoniae; experiment: Checkerboard combination assay with Ciprofloxacin; assay type: cell-based
[36] = test system: S. epidermidis biofilm; experiment: Staphylococcus biofilm mass reduction; assay type: cell-based; settings: at their MIC
[37] = molecular target: E. coli DNA gyrase (Escherichia coli, UniProt P0AES4+P0AES6); experiment: DNA gyrase inhibition; assay type: biochemical
[38] = test system: BNL: mouse normal liver cells; experiment: In vitro cytotoxicity on normal cell line; assay type: cell-based
[39] = In vitro cytotoxicity on normal cell line; assay type: cell-based, mouse; settings: mouse, BNL normal liver cells
[40] = test system: K. pneumoniae; experiment: Single-step resistance selection; assay type: cell-based; settings: 4 × MIC, 48 h

Sequence of E. coli DNA gyrase (P0AES4 whole entry, one chain of several): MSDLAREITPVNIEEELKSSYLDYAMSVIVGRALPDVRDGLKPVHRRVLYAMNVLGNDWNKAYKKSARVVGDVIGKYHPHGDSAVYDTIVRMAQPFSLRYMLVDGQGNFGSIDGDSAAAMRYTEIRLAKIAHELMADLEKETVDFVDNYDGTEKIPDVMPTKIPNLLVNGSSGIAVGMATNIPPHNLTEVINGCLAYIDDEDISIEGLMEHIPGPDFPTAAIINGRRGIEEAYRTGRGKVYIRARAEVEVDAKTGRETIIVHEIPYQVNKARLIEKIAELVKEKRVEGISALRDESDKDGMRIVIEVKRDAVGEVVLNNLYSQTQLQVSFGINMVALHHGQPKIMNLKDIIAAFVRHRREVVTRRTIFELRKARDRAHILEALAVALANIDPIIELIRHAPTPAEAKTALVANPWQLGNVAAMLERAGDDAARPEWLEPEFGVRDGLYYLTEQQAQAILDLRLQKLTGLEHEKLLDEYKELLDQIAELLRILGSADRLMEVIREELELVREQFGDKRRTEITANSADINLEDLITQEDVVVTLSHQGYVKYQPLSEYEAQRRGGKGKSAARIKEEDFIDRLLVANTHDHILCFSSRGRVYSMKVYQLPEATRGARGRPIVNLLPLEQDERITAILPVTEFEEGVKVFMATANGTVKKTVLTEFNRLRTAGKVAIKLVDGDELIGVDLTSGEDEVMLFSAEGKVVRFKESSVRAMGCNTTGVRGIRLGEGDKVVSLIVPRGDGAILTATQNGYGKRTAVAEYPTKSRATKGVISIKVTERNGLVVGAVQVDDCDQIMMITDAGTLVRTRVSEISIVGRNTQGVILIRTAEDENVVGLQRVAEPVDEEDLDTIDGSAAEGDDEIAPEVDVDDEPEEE

N#CC(=Cc1cn(-c2ccccc2)nc1-c1ccccc1)C1=NC(=O)CS1 [Compound 4a, 3-(1,3-Diphenyl-1H-pyrazol-4-yl)-2-(4-oxo-4,5-dihydrothiazol-2-yl)acrylonitrile]
Single-step resistance frequency (mutation frequency) [1]: 1.20 × 10^–9
Single-step resistance frequency (mutation frequency) [2]: 1.40 × 10^–8
zone of inhibition at 100000 µg/mL [3]: 26 ± 0.33 mm
zone of inhibition at 100000 µg/mL [4]: 31 ± 0.22 mm
combination effect [5]: S (S: synergism)
fractional inhibitory concentration index (FICI) [5]: 0.25
Single-step resistance frequency (mutation frequency) [6]: 2.43 × 10^–7
Single-step resistance frequency (mutation frequency) [7]: 1.61 × 10^–7
Selectivity index against DHFR ([8]; IC50 of Vero / IC50 of DHFR): 88.70
Selectivity index against DNA gyrase ([8]; IC50 of Vero / IC50 of DNA gyrase): 4.76
IC50 at 72 h [9]: 86.9 ± 0.97 µM
Single-step resistance frequency (mutation frequency) [10]: 1.58 × 10^–7
zone of inhibition at 100000 µg/mL [11]: 28 ± 0.13 mm
MBC/MIC ([12]; S. aureus, ratio in parentheses): 0.5
MIC ([12]; Staphylococcus aureus, read-out: MIC (mean ± SEM), S. aureus, broth microdilution): 0.43 ± 0.4 µg/mL (≈ 1.16 µM)
MBC/MIC ([13]; S. epidermidis, ratio in parentheses): 1
MIC ([13]; Staphylococcus epidermidis, read-out: MIC (mean ± SEM), S. epidermidis, broth microdilution): 0.48 ± 0.2 µg/mL (≈ 1.3 µM)
Single-step resistance frequency (mutation frequency) [14]: 1.00 × 10^–9
MIC (mean ± SEM) ([15]; E. coli, broth microdilution): 0.45 ± 0.2 µg/mL (≈ 1.21 µM)
MBC/MIC ([15]; E. coli, ratio in parentheses): 0.5
MIC ([15]; Escherichia coli, read-out: MIC (mean ± SEM), E. coli, broth microdilution): 0.45 µg/mL (≈ 1.21 µM)
combination effect [16]: S (S: synergism)
fractional inhibitory concentration index (FICI) [16]: 0.5
Selectivity index against DHFR ([17]; IC50 of H9C2 / IC50 of DHFR): 105.40
Selectivity index against DNA gyrase ([17]; IC50 of H9C2 / IC50 of DNA gyrase): 5.66
IC50 at 72 h [18]: 103 ± 1.5 µM
reduction of biofilm formation [19]: 74.3%
zone of inhibition at 100000 µg/mL [20]: 29 ± 0.23 mm
combination effect [21]: S (S: synergism)
fractional inhibitory concentration index (FICI) [21]: 0.25
zone of inhibition at 100000 µg/mL [22]: 31 ± 0.18 mm
combination effect [23]: S (S: synergism)
fractional inhibitory concentration index (FICI) [23]: 0.25
%lysis of RBCs [24]: 7.55% and 7.55 ± 0.63%
MIC (mean ± SEM) ([25]; C. albicans200, broth microdilution): 0.22 ± 0.2 µg/mL (≈ 0.594 µM)
MFC/MIC ([25]; C. albicans200, ratio in parentheses): 0.5
MIC ([25]; Candida albicans, read-out: MIC (mean ± SEM), C. albicans200, broth microdilution): 0.22 µg/mL (≈ 0.594 µM)
Single-step resistance frequency (mutation frequency) [26]: 2.20 × 10^–8
MBC/MIC ([27]; B. subtilis, ratio in parentheses): 0.5
MIC ([27]; Bacillus subtilis, read-out: MIC (mean ± SEM), B. subtilis, broth microdilution): 0.45 ± 0.5 µg/mL (≈ 1.21 µM)
MIC (mean ± SEM) ([28]; C. albicans100, broth microdilution): 0.45 ± 0.3 µg/mL (≈ 1.21 µM)
MFC/MIC ([28]; C. albicans100, ratio in parentheses): 1
MIC ([28]; Candida albicans, read-out: MIC (mean ± SEM), C. albicans100, broth microdilution): 0.45 µg/mL (≈ 1.21 µM)
MBC/MIC [29]: 0.5
combination effect [30]: S (S: synergism)
fractional inhibitory concentration index (FICI) [30]: 0.5
IC50 [31]: 980 ± 110 nM
combination effect [32]: S (S: synergism)
fractional inhibitory concentration index (FICI) [32]: 0.5
combination effect [33]: S (S: synergism)
fractional inhibitory concentration index (FICI) [33]: 0.5
MIC (mean ± SEM) ([34]; broth microdilution): 0.44 ± 0.3 µg/mL (≈ 1.19 µM)
MBC/MIC ([34]; ratio in parentheses): 1
combination effect [35]: S (S: synergism)
fractional inhibitory concentration index (FICI) [35]: 0.5
reduction of biofilm formation [36]: 64.8%
IC50 [37]: 18.2 ± 0.67 µM
Selectivity index against DHFR ([38]; IC50 of BNL / IC50 of DHFR): 101.44
Selectivity index against DNA gyrase ([38]; IC50 of BNL / IC50 of DNA gyrase): 5.44
IC50 at 72 h [39]: 99.4 ± 1.04 µM
Single-step resistance frequency (mutation frequency) [40]: 1.54 × 10^–9
